Measurements reported in patent US7268150B2, “2-cyano-4-fluoropyrrolidine derivative or its salt” (Yamanouchi Pharmaceutical Co., Ltd., priority 2002, dated 2007).
Where two headings read alike, the source gives them in different places.

Key:
plasma DPP-IV [1] = molecular target: T1, plasma DPP-IV (Rattus norvegicus, UniProt P14740); assay: Test for DPP-IV inhibiting activity duration in rats; format: in vivo; conditions: po
T1 construct: The collected blood was immediately centrifuged to isolate the plasma; from tissue; host or cells: plasma of male SD rats (Clea Japan)
T1 sequence (P14740 37-767 limits assumed): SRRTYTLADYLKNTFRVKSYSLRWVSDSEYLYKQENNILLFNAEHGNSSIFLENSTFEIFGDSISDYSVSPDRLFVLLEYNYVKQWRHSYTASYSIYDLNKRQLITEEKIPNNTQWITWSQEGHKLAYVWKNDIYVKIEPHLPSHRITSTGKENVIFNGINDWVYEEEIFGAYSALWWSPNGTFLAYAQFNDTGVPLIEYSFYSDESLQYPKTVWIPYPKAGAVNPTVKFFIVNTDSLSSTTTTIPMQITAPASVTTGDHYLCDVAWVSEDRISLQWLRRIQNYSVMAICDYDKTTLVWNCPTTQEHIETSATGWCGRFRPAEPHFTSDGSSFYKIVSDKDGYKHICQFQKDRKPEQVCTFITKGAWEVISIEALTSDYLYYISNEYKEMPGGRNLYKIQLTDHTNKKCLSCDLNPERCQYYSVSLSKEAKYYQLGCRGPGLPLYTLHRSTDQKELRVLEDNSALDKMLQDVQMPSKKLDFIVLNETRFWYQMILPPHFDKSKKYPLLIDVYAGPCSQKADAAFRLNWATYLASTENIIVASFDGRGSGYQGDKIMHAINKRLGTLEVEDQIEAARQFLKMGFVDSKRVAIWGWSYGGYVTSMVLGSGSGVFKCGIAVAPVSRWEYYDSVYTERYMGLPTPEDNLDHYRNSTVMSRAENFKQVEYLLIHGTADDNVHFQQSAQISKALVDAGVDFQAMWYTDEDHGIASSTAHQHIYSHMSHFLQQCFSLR
Protocol: (§1) The process of plasma DPP-IV activity determination was as follows: The reaction was performed in a 96-well plate. 5 μl of the collected plasma was added to an aqueous solution (95 μl/well) comprises 25 mM Tris-HCl, 140 mM sodium chloride, 10 mM potassium chloride, 1% bovine serum albumin, and 0.01 mM Gly-Pro-AMC (Bachem), and incubated at room temperature for 20 minutes.
(3) Test for DPP-IV Inhibiting Activity Duration in Rats:
Male SD rats (Clea Japan) were grouped into a test group and a control group of 5 subjects each. A test compound (10 mg/kg) was dissolved in purified water, and orally administered. Purified water alone was orally administered to the rats of the control group. One half, 6, and 12 hours after the administration, the blood was collected from each rat through the tail vein thereof. The collected blood was immediately centrifuged to isolate the plasma, and the DPP-IV activity of the plasma was measured according to the same process as in the dipeptidyl peptidase-IV (DPP-IV) inhibiting activity duration test shown in (2).
(§2) The fluorescent intensity of the well, to which was added the plasma collected from the control group, was 100%. Based on it, the DPP-IV activity of the plasma collected from the test compound-administered rats was calculated, and the activity difference between the control group and the test group was obtained. This indicated the inhibition in the test group.

DPP-IV = molecular target: T2, DPP-IV (Homo sapiens, UniProt P27487); assay: Test for determination of DPP-IV inhibiting activity (Gly-Pro-AMC cleavage by human plasma); format: biochemical
T2 construct: added was 5 μL of plasma collected from healthy adult volunteers; from tissue; host or cells: plasma of healthy adult volunteers
T2 sequence (P27487 39-766 limits assumed): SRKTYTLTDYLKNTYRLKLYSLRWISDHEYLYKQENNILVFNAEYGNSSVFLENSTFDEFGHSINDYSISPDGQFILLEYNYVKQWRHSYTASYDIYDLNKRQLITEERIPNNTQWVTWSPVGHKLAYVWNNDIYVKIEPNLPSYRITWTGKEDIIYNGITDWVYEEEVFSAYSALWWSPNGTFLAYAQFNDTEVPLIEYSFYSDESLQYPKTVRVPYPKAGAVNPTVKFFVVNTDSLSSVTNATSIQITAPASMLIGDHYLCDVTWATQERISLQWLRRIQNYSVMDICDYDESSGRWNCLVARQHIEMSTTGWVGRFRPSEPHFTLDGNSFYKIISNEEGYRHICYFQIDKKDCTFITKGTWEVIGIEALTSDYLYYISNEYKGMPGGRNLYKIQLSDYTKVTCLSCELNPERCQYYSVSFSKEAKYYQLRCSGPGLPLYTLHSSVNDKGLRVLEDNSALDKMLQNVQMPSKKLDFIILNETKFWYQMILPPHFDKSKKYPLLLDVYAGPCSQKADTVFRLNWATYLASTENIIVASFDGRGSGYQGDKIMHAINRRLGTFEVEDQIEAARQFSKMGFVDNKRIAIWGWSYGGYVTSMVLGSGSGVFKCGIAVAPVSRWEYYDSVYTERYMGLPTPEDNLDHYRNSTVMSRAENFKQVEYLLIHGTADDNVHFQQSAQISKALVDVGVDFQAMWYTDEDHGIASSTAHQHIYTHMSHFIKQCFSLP
Protocol: (1) Test for Determination of DPP-IV Inhibiting Activity:
The reaction was performed in a 96-well flat-bottom microtiter plate. A varying concentration of the test compound was added to an aqueous solution comprised of 25 mM Tris-HCl, 140 mM sodium chloride, 10 mM potassium chloride, 1% RIA-grade bovine serum albumin, and 0.01 mM Gly-Pro-AMC (Bachem). To this reaction solution (95 μL/well), added was 5 μL of plasma collected from healthy adult volunteers, and incubated at room temperature for 20 minutes. […] The data of 3 wells under the same conditions were averaged.
The inhibition in the test group, relative to the solvent-added group was calculated, and the IC50 value thereof was obtained through logistic analysis.

plasma DPP-IV [2] = molecular target: T3, plasma DPP-IV (Mus musculus, UniProt P28843); assay: Test for DPP-IV inhibiting activity duration in mice; format: in vivo; conditions: po
T3 construct: The collected blood was immediately centrifuged to isolate the plasma; from tissue; host or cells: plasma of male ICR mice (Nippon SLC)
T3 sequence (P28843 37-760 limits assumed): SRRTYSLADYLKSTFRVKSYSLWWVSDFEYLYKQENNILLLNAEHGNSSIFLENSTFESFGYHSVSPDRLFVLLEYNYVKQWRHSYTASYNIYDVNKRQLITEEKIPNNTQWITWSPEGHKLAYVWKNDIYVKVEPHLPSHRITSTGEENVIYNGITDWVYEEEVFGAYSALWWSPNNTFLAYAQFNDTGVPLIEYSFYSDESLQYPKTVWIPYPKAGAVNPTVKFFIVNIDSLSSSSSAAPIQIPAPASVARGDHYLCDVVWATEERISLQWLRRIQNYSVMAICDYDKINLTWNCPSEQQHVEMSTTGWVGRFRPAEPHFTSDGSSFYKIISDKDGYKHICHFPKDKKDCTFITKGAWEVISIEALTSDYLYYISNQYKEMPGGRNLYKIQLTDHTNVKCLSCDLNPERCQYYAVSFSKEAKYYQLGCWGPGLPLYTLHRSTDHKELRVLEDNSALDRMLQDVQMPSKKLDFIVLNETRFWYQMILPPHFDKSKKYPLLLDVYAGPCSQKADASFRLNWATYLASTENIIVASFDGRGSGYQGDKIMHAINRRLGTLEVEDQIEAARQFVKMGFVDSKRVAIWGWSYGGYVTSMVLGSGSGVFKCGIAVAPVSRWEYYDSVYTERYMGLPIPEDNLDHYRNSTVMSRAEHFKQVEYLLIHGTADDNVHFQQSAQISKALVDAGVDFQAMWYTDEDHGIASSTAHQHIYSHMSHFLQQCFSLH
Protocol: (2) Test for DPP-IV Inhibiting Activity Duration in Mice:
Male ICR mice (Nippon SLC) were grouped into a test group and a control group of 5 subjects each. A test compound (10 mg/kg) was dissolved in purified water, and orally administered. Purified water alone was orally administered to the mice of the control group. One half, 6, and 12 hours after the administration, the blood was collected from each mouse through the orbital venous plexus thereof. The collected blood was immediately centrifuged to isolate the plasma, and the DPP-IV activity of the plasma was measured.
as §1
as §2, with “mice” for “rats”

[3] = male SD rats, 10 mg/kg orally, 12 h after administration, relative to control group, read-out: inhibition of plasma DPP-IV activity after 12 h
[4] = read-out: inhibition of plasma DPP-IV activity after 6 h, male SD rats, 10 mg/kg orally, 6 h after administration, relative to control group
[5] = plasma from healthy adult volunteers, 0.01 mM Gly-Pro-AMC, room temperature, 20 minutes, read-out: IC50 (DPP-IV inhibiting activity)
[6] = male ICR mice, 10 mg/kg orally, 12 h after administration, relative to control group, read-out: inhibition of plasma DPP-IV activity after 12 h
[7] = read-out: inhibition of plasma DPP-IV activity after 6 h, male ICR mice, 10 mg/kg orally, 6 h after administration, relative to control group
[8] = read-out: inhibition of plasma DPP-IV activity after 6 h
[9] = read-out: inhibition of plasma DPP-IV activity after 12 h

Row | Structure (SMILES) | inhibition at 10 mg/kg (plasma DPP-IV [1]; [3]) | inhibition at 10 mg/kg (plasma DPP-IV [1]; [4]) | IC50 (DPP-IV; [5]) | inhibition at 10 mg/kg (plasma DPP-IV [2]; [6]) | inhibition at 10 mg/kg (plasma DPP-IV [2]; [7]) | further results
1 | N#C[C@@H]1C[C@H](F)CN1C(=O)CNC1CCN(C(=O)N2CCOCC2)CC1 [Example 28] |  |  | 5.1 nM |  |  | 
2 | N#C[C@@H]1C[C@H](F)CN1C(=O)CNC1CCN(C(=O)CO)CC1 [Example 21] |  |  | 6 nM | 71% | 78% | 
3 | CS(=O)(=O)N1CCC(NCC(=O)N2CCC[C@H]2C#N)CC1 [compound 1, reference compound] | 38% | 65% |  |  |  | 
4 | CC1(NCC(=O)N2C[C@@H](F)C[C@H]2C#N)CCN(C(=O)CF)CC1 [Example 41] |  |  |  |  |  | inhibition at 10 mg/kg (plasma DPP-IV [1]; [8]): 93%; inhibition at 10 mg/kg (plasma DPP-IV [1]; [9]): 89%; IC50 (DPP-IV): 5.9 nM; inhibition at 10 mg/kg (plasma DPP-IV [2]; [8]): 83%; inhibition at 10 mg/kg (plasma DPP-IV [2]; [9]): 78%
5 | CS(=O)(=O)N1CCC(NCC(=O)N2C[C@@H](F)C[C@H]2C#N)CC1 [Example 1, (2S,4S)-4-fluoro-1-({[1-(methanesulfonyl)piperidin-4-yl]amino}acetyl)pyrrolidine-2-carbonitrile monofumarate] |  |  | 4.2 nM | 59% | 74% | 
6 | N#C[C@@H]1C[C@H](F)CN1C(=O)CNC1CCN(C=O)CC1 [Example 19] |  |  | 4.2 nM | 61% | 72% | 

The next lines start with results.

Row | inhibition at 10 mg/kg (plasma DPP-IV [1]; [3]) | inhibition at 10 mg/kg (plasma DPP-IV [1]; [4]) | IC50 (DPP-IV; [5]) | inhibition at 10 mg/kg (plasma DPP-IV [2]; [6]) | inhibition at 10 mg/kg (plasma DPP-IV [2]; [7]) | Structure (SMILES) | further results
7 | 55% | 77% |  |  |  | COCC(=O)N1CCC(NCC(=O)N2CCC[C@H]2C#N)CC1 [compound 2, reference compound] | 
8 | 45% | 80% |  |  |  | COC(C)S(=O)(=O)N1CCC(C)(NCC(=O)N2C[C@@H](F)C[C@H]2C#N)CC1 (stereo partly shown) [compound 3, reference compound] | 
9 | 86% | 92% | 7.5 nM | 78% | 81% | CC1(NCC(=O)N2C[C@@H](F)C[C@H]2C#N)CCN(C=O)CC1 [Example 36] | 
10 | 94% | 96% | 8.2 nM | 79% | 85% | CC1(NCC(=O)N2C[C@@H](F)C[C@H]2C#N)CCN(C(=O)CO)CC1 [Example 34] | 
